This note sets out measurements from PubChem BioAssay AID179 (DTP/NCI, 2004).

In this assay the test system is CEM cells HIV-1 protection, formazan growth assay. As to the kind of experiment: NCI AIDS Antiviral Assay. The following applies: for IC50: measured here: growth of uninfected CEM cells. A digest of the protocol: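 Protection of CEM cells against HIV-1 measured as cell growth via soluble formazan read-out, with five concentrations tested on both infected and uninfected cells; failure to protect may reflect toxicity.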

The EC50 is the concentration at which the effect is half-maximal. What is called IC50 is the concentration that inhibits the measured activity by half. The low end stands for inhibition by little substance, the high end for a need for much substance.

“And” between values parts separate entries of the source, which are not always exact repeats. Equal values may be shown once. The source made the active and inactive calls.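 Rule for the calls: active = compounds giving half or more protection of infected cells from virus-caused growth loss, again on retest; inactive = the rest.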 Where only a bound is given, the exact number is not on record here.

For the compound `CCc1ccc(NCc2cc(OC)c(OC)c(OC)c2)cc1`, the EC50 was above 166 µM; the IC50 was 0.372 µM and 0.151 µM.
As to `CC1CCOc2ccc(cc2)C=Nc2ccc(cc2)CCc2ccc(cc2)N=Cc2ccc(cc2)OCC1` (centres undefined), the EC50 was above 200 µM and the IC50 was above 200 µM.
Turning to `CCCCCCC(=O)CC(=O)C(=O)Nc1ccccc1C`, the EC50 was above 25.1 µM and the IC50 is above 25.1 µM.
For `Nc1ccc(C(=O)CC2(O)C(=O)Nc3c(Cl)cc(Cl)cc32)cc1` (centres undefined), the EC50 was above 33.9 µM and the IC50 is 18.6 µM.
On the same counts, the results for `Fc1ccc2nncc(SCc3ccc(Cl)c(Cl)c3)c2c1` are above 79.4 µM and above 79.4 µM.
The like results for `Nc1ncnc2c1ncn2CC(=O)NCCCO` were, in that order, above 200 µM and above 200 µM.
`c1ccc2c(c1)CC1c3[nH]c4ccccc4c3CCN21` (centres undefined): the EC50 is above 200 µM and the half-maximal inhibitory concentration (IC50) came out at 55 µM.
The like results for `COC(=O)[C@H](Cc1ccccc1)NC(=O)N(CCNCCNC(=O)OC(C)(C)C)c1ccccc1` were, in that order, above 200 µM and above 100 µM.
On the same counts, the results for `CCCCCCCCCCCCCCCCCC(=O)OCC1OC(OC)C(NC(=O)N(CCCl)N=O)C(O)C1O` (centres undefined) are above 8.71 µM and above 8.71 µM.
`COC1C2C=CC(C2)[C@H]1[N+](=O)[O-]` (some centres undefined): the outcome was inactive.
As for `Nc1c(-c2nc3ccccc3s2)[n+]([O-])c2ccccc2[n+]1[O-]`, the result was inactive.
`Cn1c(=O)[nH]c2c(c1=O)CCCS2`: the EC50 was above 251 µM and the IC50 was above 251 µM.
For `O=C(CN1CCNCCN(CC(=O)N2CCCCC2)CCNCC1)N1CCCCC1`, the EC50 is above 200 µM and the IC50 was 10.5 µM.
As for `COc1ccc(C2=C(N)c3c(Cl)cccc3C2=O)cc1`, the EC50 was above 200 µM and the IC50 turned out to be 155 µM.
Regarding `CC1=C/C(=C(\c2cc(C)c(O)c(C(=O)O)c2)c2c(Cl)cccc2Cl)C=C(C(=O)O)C1=O`, the outcome was inactive.
`COc1ccc(I)c(CCC(CO)C2=CCC3(CC2)OCCO3)c1` (centres undefined): the EC50 is above 16.2 µM and the 50% inhibitory concentration (IC50) is above 16.2 µM.
With `CCOC(=O)C(c1c(O)c2ccccc2oc1=O)c1c(O)c2ccccc2oc1=O`, the EC50 was above 617 µM and the IC50 is 64.6 µM.
On to `O=c1[nH]c2ccccc2c(O)c1N=Nc1ccc(S(=O)(=O)O)cc1`, for which the EC50 is above 200 µM and the IC50 is above 200 µM.
Take `Clc1c2ccccc2[se][n+]1-c1ccccc1`: the EC50 is above 21.9 µM and the IC50 is 11.2 µM.
As to `O=C1CSC(c2cccc([N+](=O)[O-])c2)N1c1ccc(-n2c(-c3ccccc3)nc3ccccc3c2=O)cc1` (centres undefined), the EC50 is above 200 µM and the IC50 was above 200 µM.
`c1ccc(Nc2nnc(CSc3nc(-c4ccccc4)c(-c4ccccc4)[nH]3)s2)cc1`: the EC50 is above 81.3 µM and the half-maximal inhibitory concentration (IC50) is 72.4 µM.
Turning to `CCN1CCN=c2c3cc(OC)ccc3n3cnc4ccc1c2c43`, the EC50 is above 20 µM and the 50% inhibitory concentration (IC50) is 0.0955 µM.
The like results for `Cc1ccc(S(=O)(=O)C2=Cc3ccccc3C2(O)c2ccccc2)cc1` (centres undefined) were, in that order, above 200 µM and 21.4 µM.
Consider `COc1ccc(C(C#N)NNc2nc(C)cc(=O)[nH]2)cc1OC` (centres undefined), for which the EC50 was above 794 µM and the IC50 was 234 µM.
For the compound `O=C(O)CCCCCCCCCCOc1ccc(I)cc1`, the EC50 was above 200 µM and the IC50 was 28.2 µM.
With `C=CCC(C(=O)NC(N)=O)c1ccccc1` (centres undefined), the EC50 was above 832 µM and the IC50 is 617 µM.
For `CN(C)CCC(=O)N1C/C(=C/c2ccccc2)C(=O)/C(=C\c2ccccc2)C1`, the EC50 is above 17.4 µM and the IC50 is 0.339 µM.
On the same counts, the results for `CC12CCC(=O)N1c1ccccc1N2` (centres undefined) are above 501 µM and above 501 µM.
Take `COc1ccc(C2N(c3ccc(F)c([N+](=O)[O-])c3)C(=O)N3C(c4ccc(OC)cc4)N(c4ccc(F)c([N+](=O)[O-])c4)C(=O)N23)cc1` (centres undefined): the EC50 is above 200 µM and the IC50 came out at 33.9 µM.
For the compound `N#CC(C#N)C1CN2CCC1CC2` (centres undefined), the EC50 was above 200 µM and the IC50 was above 200 µM.
Regarding `CSCCCNC(=O)c1csc(-c2csc(C(CNC(=O)OC(C)(C)C)CNC(=O)OC(C)(C)C)n2)n1`, the EC50 is above 200 µM and the IC50 is 22.4 µM.
For the compound `CC(=O)/C(=C\n1c(=S)[nH]c2ccc([N+](=O)[O-])cc21)C(=O)Nc1ccccc1C`, the EC50 is above 200 µM and the IC50 turned out to be 89.1 µM.
The like results for `CC(=O)Nc1ccccc1S(=O)(=O)c1c(-c2c(C)c(Cl)c(C)c(Cl)c2C)noc1C` were, in that order, above 200 µM and 87.1 µM.
For `CCCCOC(=O)c1cc(C(=CCC[C@H]2CC[C@@]3(C)[C@@H](CC[C@@H]4[C@@H]3CC[C@]3(C)[C@@H](C(C)CCCC(C)C)CC[C@@H]43)C2)c2cc(Cl)c(O)c(C(=O)OCCCC)c2)cc(Cl)c1O` (some centres undefined), the EC50 was above 100 µM and the IC50 is above 100 µM.
Consider `C/C(O)=C(/C=N/C(=S)Nc1ccc(S(N)(=O)=O)cc1)C(=O)Nc1ccccc1C`, for which the EC50 is above 200 µM and the 50% inhibitory concentration (IC50) is above 200 µM.
Turning to `Cc1ccc(-n2[nH]nc(C#N)c2=O)cc1`, the EC50 is above 200 µM and the IC50 is above 200 µM.
As to `N[C@@H](Cc1ccccc1)C(=O)N1CCC[C@@H]1P(=O)(Oc1ccccc1)Oc1ccccc1`, the result was inactive.
Regarding `Cc1cc(N)ccc1C=O`, the EC50 is above 200 µM and the IC50 is above 200 µM.
In the case of `COc1cnc2cc3c4c(cccc4c2c1)NC3=O`, the EC50 is above 100 µM and the IC50 was determined as 3.98 µM.
As to `O=C(O)Cc1cccc2c1OC(c1ccccc1)C(C(=O)c1ccccc1)C2=O` (centres undefined), the EC50 was above 200 µM and the IC50 worked out at 75.9 µM.
On to `O=S(=O)(c1ccccc1)C1CC(c2nc3ccccc3[nH]2)=NO1` (centres undefined), for which the EC50 is above 200 µM and the IC50 is 132 µM.
The like results for `O=C(O)CC1C(=O)OC2C3COC(=O)c4cc(O)c(O)c(O)c4-c4c(cc(O)c(O)c4O)C(=O)OC2C(OC(=O)c2cc(O)c(O)c4c2C1C(O)C(=O)O4)C(OC(=O)c1cc(O)c(O)c(O)c1)O3` (centres undefined) were, in that order, 3.31 µM and 18.6 µM.
`Cn1c(=O)nc2n(-c3ccc(F)c(F)c3)c3ccccc3nc-2c1=O`: the result was inactive.
Consider `COc1ccc(CC2C(=O)NC(=O)NC2=O)cc1OCc1ccccc1`, for which the outcome was inactive.
`Cc1ccc(NP2(=O)N(Cc3ccc(Cl)cc3)CCCN2Cc2ccc(Cl)cc2)cc1`: the EC50 was above 200 µM and the IC50 amounted to 11 µM.
With `CC(C)(C)OC(=O)NC(Cc1ccc(OCc2ccccc2)cn1)C(=O)O` (centres undefined), the EC50 was above 200 µM and the concentration for half-maximal inhibition (IC50) is above 200 µM.
Take `N#CC12C3C4C5C3C1C(C42)n1c(=O)n(-c2ccccc2)c(=O)n15` (centres undefined): the EC50 was above 200 µM and the IC50 was above 200 µM.
For the compound `O=C(COc1ccc(Cl)cc1)N1CCN(C(=O)COc2ccc(Cl)cc2)c2ccccc21`, the EC50 was above 11 µM and the IC50 was above 11 µM.
Take `Cc1nc2ccc(Br)cc2c(=O)n1-c1ccc(NC2OCC(O)C(O)C2O)cc1` (centres undefined): the EC50 was above 200 µM; the IC50 is 20.9 µM and 138 µM.
As for `O=C1C2C3C=CC(CC3)C2C(=O)C2C3C=CC(C3)C12` (centres undefined), the EC50 was above 200 µM and the IC50 is 129 µM.
